The values below come from the supplement of paper PMC10331698.

± gives the standard deviation of the averaged measurements.

Holding throughout (assay): level (log10 ratio to DMSO vehicle control); higher = higher biomarker level / cell amount than vehicle control
Holding throughout (details): in DMSO

Compound in assay [1]: COC(=O)CCC(F)(F)C(F)(F)C(F)(F)C(F)(F)F [Methyl 2H,2H,3H,3H-perfluoroheptanoate]
As for the experimental part:
(§1)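 BioMAP Diversity Plus panel of 12 human primary cell co-culture systems (3C, 4H, LPS, SAg, BT, BF4T, BE3C, CASM3C, HDF3CGF, KF3CT, MyoF, Mphg). Compounds were added 1 h before stimulation and left for 24 h (MyoF 48 h; BT 72 h for soluble read-outs or 6 d for IgG). Biomarkers were read by ELISA, cytotoxicity by SRB, PBMC viability and proliferation by Alamar Blue. Each well value was divided by the mean of 8 DMSO control wells on the same plate and log10 transformed; duplicate blinded samples were tested at 4 concentrations.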

Compound in assay [2]: O=C(O)C(F)(F)C(F)(F)C(F)(F)OC(F)(C(F)(F)F)C(F)(F)F [Perfluoro-4-isopropoxybutanoic acid]
As to the method:
as §1

Compound in a further assay: O=C(O)C(F)(F)C(F)(F)C(F)(F)C(F)(F)C(F)(F)C(F)(F)C(F)(F)C(F)(F)C(F)(F)F [Perfluorodecanoic acid]
As for the experimental part:
as §1

Compound in assay [3]: NCC(F)(F)C(F)(F)C(F)(F)C(F)(F)C(F)(F)C(F)(F)C(F)(F)F [1H,1H-Perfluorooctylamine]
As to the method:
as §1

Compound in a further assay: O=C(O)C(F)(F)C(F)(F)F [Perfluoropropanoic acid]
As to the method:
as §1

Compound in assay [4]: FC(F)(F)C(F)(C(F)(F)F)C(F)(F)C(F)(F)CC1CO1 [3-(Perfluoro-3-methylbutyl)-1,2-propenoxide]
As for the experimental part:
as §1

Compound in the next assay: FC(F)(F)C(F)(F)C(F)(F)C(F)(F)C(F)(F)C(F)(F)I [Perfluoro-1-iodohexane]
As for the experimental part:
as §1

Regarding LPS:CD142/Tissue Factor, the “level (log10)” value is 0.0015 ± 0.067 in assay [1] (6700 nM); 0.0175 ± 0.054 in assay [1] (20000 nM); -0.019 ± 0.0085 in assay [1] (60000 nM); 0.019 ± 0.033 in assay [2] (6700 nM); 0.0165 ± 0.011 in assay [2] (20000 nM); -0.016 ± 0.1 in assay [2] (60000 nM). The “level (log10)” value was 0.018 ± 0.0085 with Perfluorodecanoic acid (6700 nM); -0.011 ± 0.0028 with Perfluorodecanoic acid (20000 nM); 0.02 ± 0.095 in assay [3] (6700 nM); 0.005 ± 0.054 in assay [3] (20000 nM); -0.0475 ± 0.073 in assay [3] (60000 nM); 0.001 ± 0.0028 with Perfluoropropanoic acid (6700 nM). Moreover, the “level (log10)” value in the assay with Perfluoropropanoic acid (20000 nM) is 0.0055 ± 0.028; with Perfluoropropanoic acid (60000 nM), 0.0235 ± 0.0078; in assay [4] (6700 nM), -0.017 ± 0.088; in assay [4] (20000 nM), 0.031 ± 0.096; with Perfluoro-1-iodohexane (6700 nM) it was -0.018 ± 0.038; with Perfluoro-1-iodohexane (20000 nM), 0.0045 ± 0.0021. The “level (log10)” value with Perfluoro-1-iodohexane (60000 nM) was determined as 0.0045 ± 0.011.
With LPS:CXCL8/IL-8, the “level (log10)” value was -0.0075 ± 0.023 in assay [1] (6700 nM); -0.016 ± 0.0071 in assay [1] (20000 nM); 0.022 ± 0.016 in assay [1] (60000 nM); 0.0515 ± 0.0021 in assay [2] (6700 nM); 0.0935 ± 0.035 in assay [2] (20000 nM); 0.134 ± 0.018 in assay [2] (60000 nM). In addition, the “level (log10)” value with Perfluorodecanoic acid (6700 nM) was 0.027 ± 0.0071; in the assay with Perfluorodecanoic acid (20000 nM), 0.0115 ± 0.0064; in assay [3] (6700 nM) it was -0.0315 ± 0.011; in assay [3] (20000 nM), -0.0265 ± 0.0035; in assay [3] (60000 nM) it was -0.0105 ± 0.033; with Perfluoropropanoic acid (6700 nM), -0.013 ± 0.02. The “level (log10)” value with Perfluoropropanoic acid (20000 nM) is -0.001 ± 0.0085; with Perfluoropropanoic acid (60000 nM) it was -0.002 ± 0.0071; in assay [4] (6700 nM), 0.0325 ± 0.043; in assay [4] (20000 nM), 0.045 ± 0.072; in the assay with Perfluoro-1-iodohexane (6700 nM) it was -0.0045 ± 0.015; with Perfluoro-1-iodohexane (20000 nM), 0.005. Besides, the “level (log10)” value with Perfluoro-1-iodohexane (60000 nM) was 0.015 ± 0.017.
As to LPS:IL-1alpha, the “level (log10)” value in assay [1] (6700 nM) was -0.0265 ± 0.015; in assay [1] (20000 nM), -0.0185 ± 0.018; in assay [1] (60000 nM), 0.0235 ± 0.016; in assay [2] (6700 nM), -0.043 ± 0.0071; in assay [2] (20000 nM), -0.0015 ± 0.013; in assay [2] (60000 nM) it was 0.0205 ± 0.064. In addition, the “level (log10)” value was 0.0275 ± 0.016 in the assay with Perfluorodecanoic acid (6700 nM); -0.0125 ± 0.0092 in the assay with Perfluorodecanoic acid (20000 nM); -0.04 ± 0.038 in assay [3] (6700 nM); 0.0105 ± 0.022 in assay [3] (20000 nM); -0.0025 ± 0.03 in assay [3] (60000 nM); -0.047 ± 0.033 with Perfluoropropanoic acid (6700 nM). Moreover, the “level (log10)” value with Perfluoropropanoic acid (20000 nM) is -0.0405 ± 0.037; in the assay with Perfluoropropanoic acid (60000 nM) it was -0.0165 ± 0.032; in assay [4] (6700 nM), -0.0205 ± 0.011; in assay [4] (20000 nM) it was 0.0155 ± 0.0092; in the assay with Perfluoro-1-iodohexane (6700 nM), -0.048 ± 0.035; with Perfluoro-1-iodohexane (20000 nM) it was -0.042 ± 0.021. The “level (log10)” value in the assay with Perfluoro-1-iodohexane (60000 nM) is -0.004 ± 0.0014.
For the test system LPS:M-CSF, the “level (log10)” value in assay [1] (6700 nM) is -0.0005 ± 0.0035; in assay [1] (20000 nM), 0.002 ± 0.011; in assay [1] (60000 nM), 0.0105 ± 0.043; in assay [2] (6700 nM), 0.001 ± 0.0057; in assay [2] (20000 nM) it was -0.004 ± 0.023; in assay [2] (60000 nM), 0.016 ± 0.0028. Further, the “level (log10)” value with Perfluorodecanoic acid (6700 nM) is -0.0015 ± 0.015; in the assay with Perfluorodecanoic acid (20000 nM) it was -0.0045 ± 0.018; in assay [3] (6700 nM), 0.008 ± 0.024; in assay [3] (20000 nM), -0.015 ± 0.03; in assay [3] (60000 nM), -0.0235 ± 0.025; in the assay with Perfluoropropanoic acid (6700 nM), 0.006 ± 0.0028. For the same test system, the “level (log10)” value with Perfluoropropanoic acid (20000 nM) was -0.027 ± 0.0014; in the assay with Perfluoropropanoic acid (60000 nM), -0.0005 ± 0.037; in assay [4] (6700 nM), -0.0005 ± 0.019; in assay [4] (20000 nM), 0.021 ± 0.038; with Perfluoro-1-iodohexane (6700 nM), 0.0135 ± 0.019; with Perfluoro-1-iodohexane (20000 nM), -0.0055 ± 0.05. Besides, in the assay with Perfluoro-1-iodohexane (60000 nM), the “level (log10)” value is -0.003 ± 0.025.
In the case of LPS:SRB, the “level (log10)” value in assay [1] (6700 nM) is 0.006 ± 0.023; in assay [1] (20000 nM) it was 0.001 ± 0.011; in assay [1] (60000 nM), -0.0045 ± 0.011; in assay [2] (6700 nM), 0.0075 ± 0.015; in assay [2] (20000 nM) it was 0.018 ± 0.0099; in assay [2] (60000 nM), 0.0215 ± 0.016. In addition, the “level (log10)” value was 0.01 ± 0.0071 in the assay with Perfluorodecanoic acid (6700 nM); 0.003 ± 0.0042 with Perfluorodecanoic acid (20000 nM); -0.0005 ± 0.0035 in assay [3] (6700 nM); -0.0025 ± 0.0092 in assay [3] (20000 nM); 0.006 ± 0.037 in assay [3] (60000 nM); -0.0125 ± 0.00071 with Perfluoropropanoic acid (6700 nM). Further, the “level (log10)” value with Perfluoropropanoic acid (20000 nM) was -0.0035 ± 0.013; with Perfluoropropanoic acid (60000 nM) it was -0.0065 ± 0.0064; in assay [4] (6700 nM), 0 ± 0.0042; in assay [4] (20000 nM) it was -0.0035 ± 0.005; with Perfluoro-1-iodohexane (6700 nM) it was -0.0025 ± 0.0064; in the assay with Perfluoro-1-iodohexane (20000 nM), -0.0055 ± 0.0064. Further, the “level (log10)” value with Perfluoro-1-iodohexane (60000 nM) is -0.0085 ± 0.00071.
LPS:sPGE2: the “level (log10)” value is 0.014 ± 0.033 in assay [1] (6700 nM); 0.0395 ± 0.0078 in assay [1] (20000 nM); -0.0125 ± 0.04 in assay [1] (60000 nM); -0.0145 ± 0.043 in assay [2] (6700 nM); -0.0585 ± 0.022 in assay [2] (20000 nM); -0.0615 ± 0.023 in assay [2] (60000 nM). For the same test system, the “level (log10)” value with Perfluorodecanoic acid (6700 nM) was -0.017 ± 0.025; with Perfluorodecanoic acid (20000 nM), -0.052 ± 0.0071; in assay [3] (6700 nM) it was -0.076 ± 0.025; in assay [3] (20000 nM) it was -0.059 ± 0.031; in assay [3] (60000 nM), -0.036 ± 0.013; with Perfluoropropanoic acid (6700 nM) it was -0.017 ± 0.05. Also, the “level (log10)” value with Perfluoropropanoic acid (20000 nM) is -0.018 ± 0.0071; with Perfluoropropanoic acid (60000 nM), -0.011 ± 0.04; in assay [4] (6700 nM), -0.012 ± 0.023; in assay [4] (20000 nM), -0.0095 ± 0.054; with Perfluoro-1-iodohexane (6700 nM), 0.0235 ± 0.0092; with Perfluoro-1-iodohexane (20000 nM), 0.0015 ± 0.00071. For the same test system, the “level (log10)” value in the assay with Perfluoro-1-iodohexane (60000 nM) is -0.038 ± 0.018.
